Experimental findings from patent publication US9464092B2, “Transient protection of normal cells during chemotherapy” (G1 Therapeutics, Inc., priority 2013, dated 2016) are described below.

Read-outs that look alike come from different tables or passages of the source.

Data set [1] concerns HS68 cells (human skin fibroblast cell line (Rb-positive)). The data set is described as follows: G1 arrest (cellular G1 and S-phase) assay. It is filed as cell-based. On the procedure:
For determination of cellular fractions in various stages of the cell cycle following various treatments, HS68 cells (human skin fibroblast cell line (Rb-positive)) were stained with propidium iodide staining solution and run on Dako Cyan Flow Cytometer. The fraction of cells in G0-G1 DNA cell cycle versus the fraction in S-phase DNA cell cycle was determined using FlowJo 7.2 0.2 analysis.
The compounds listed in Table 1 were tested for their ability to arrest HS68 cells at the G1 phase of the cell cycle.

The target in data set [2] is CDK2/CyclinE (Homo sapiens (Human), UniProt P24941). The data set is described as follows: CDK2/CyclinE kinase assay (Nanosyn, Caliper microfluidic). In kind it is biochemical. The following applies: for IC50: read-out: CDK2/CycE IC50. As to the method:
Selected compounds disclosed herein were tested in CDK4/cyclinD1, CDK6/CycD3 CDK2/CycA and CDK2/cyclinE kinase assays by Nanosyn (Santa Clara, Calif.) to determine their inhibitory effect on these CDKs. The assays were performed using microfluidic kinase detection technology (Caliper Assay Platform). The compounds were tested in 12-point dose-response format in singlicate at Km for ATP. Phosphoacceptor substrate peptide concentration used was 1 μM for all assays and Staurosporine was used as the reference compound for all assays.

Data set [3] deals with CDK4/CyclinD1 (Homo sapiens (Human), UniProt P11802). The experiment in a line: CDK4/CyclinD1 kinase assay (Nanosyn, Caliper microfluidic). It is filed as biochemical. The following applies: Table 2; read-out: CDK4/CycD1 IC50. On the procedure: (§1) Selected compounds disclosed herein were tested in CDK4/cyclinD1, CDK6/CycD3 CDK2/CycA and CDK2/cyclinE kinase assays by Nanosyn (Santa Clara, Calif.) to determine their inhibitory effect on these CDKs. The assays were performed using microfluidic kinase detection technology (Caliper Assay Platform). The compounds were tested in 12-point dose-response format in singlicate at Km for ATP. Phosphoacceptor substrate peptide concentration used was 1 μM for all assays and Staurosporine was used as the reference compound for all assays. Specifics of each assay are as described below:
CDK4/CyclinD1: Enzyme concentration: 1 nM; ATP concentration: 200 μM; Incubation time: 10 hr.

Data set [4] concerns the target CDK2/CyclinA (Homo sapiens (Human), UniProt P24941). The data set is described as follows: CDK2/CyclinA kinase assay (Nanosyn, Caliper microfluidic). It is filed as biochemical. Conditions: for IC50: read-out: CDK2/CycA IC50. As to the method: as §1
CDK2/CyclinA: Enzyme concentration: 0.2 nM; ATP concentration: 50 μM; Incubation time: 3 hr.

In data set [5] the test system is HSPCs (bone marrow). The experiment in a line: HSPC proliferation in bone marrow by EdU incorporation after oral gavage. It is filed as in vivo, mice. On the procedure:
Mice were then sacrificed at the indicated times (0, 12, 24, 36, or 48 hours following compound administration), and bone marrow was harvested (n=3 mice per time point), as previously described (Johnson et al. J. Clin. Invest. (2010) 120(7), 2528-2536). Four hours before the bone marrow was harvested, mice were treated with 100 μg of EdU by intraperitoneal injection (Invitrogen). Bone marrow mononuclear cells were harvested and immunophenotyped using previously described methods and percent EdU positive cells were then determined (Johnson et al. J. Clin. Invest. (2010) 120(7), 2528-2536). In brief, HSPCs were identified by expression of lineage markers (Lin-), Sca1 (S+), and c-Kit (K+).
Four hours before animals were sacrificed and the bone marrow was harvested, mice were treated with 100 μg of EdU by intraperitoneal injection. Three mice per group were sacrificed at 12 hours and the remaining three animals per group were sacrificed at 24 hours. Results are shown in FIG. 6A as the ratio of EdU positive cells for treated animals at 12 or 24 hour time points compared to control.
Further experiments were completed with Compound T examining dose response and longer periods of compound treatment. […] […].
Both compounds were administered at 150 mg/kg by oral gavage. One hour prior to harvesting bone marrow, EdU was IP injected to label cycling cells. Bone marrow was harvested at 12, 24, 36, and 48 hours after compound treatment and the percentage of EdU positive HSPC cells was determined at each time point.

Data set [6] in a line: Mouse pharmacokinetics (oral gavage / intravenous). It is filed as in vivo, mice. The following applies: for AUC(0-inf) / clearance / Vd: iv, 10 mg/kg i.v.; for Vd: read-out: Vss.
The mark [7] stands for this setting: mouse, plasma, po, 30 mg/kg, mouse, 30 mg/kg oral gavage, read-out: t1/2 p.o. (converted).
[8] abbreviates: plasma, mouse, 30 mg/kg oral gavage.

CDK4/CyclinD1, sequence (P11802 whole entry, species assumed): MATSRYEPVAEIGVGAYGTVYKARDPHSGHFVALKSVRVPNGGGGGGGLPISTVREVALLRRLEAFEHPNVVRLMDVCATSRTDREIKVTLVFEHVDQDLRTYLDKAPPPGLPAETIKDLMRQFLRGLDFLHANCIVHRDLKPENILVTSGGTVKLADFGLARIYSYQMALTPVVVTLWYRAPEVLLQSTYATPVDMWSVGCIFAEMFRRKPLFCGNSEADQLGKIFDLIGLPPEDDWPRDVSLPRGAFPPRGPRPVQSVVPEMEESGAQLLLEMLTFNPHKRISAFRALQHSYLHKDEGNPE
CDK4/CyclinD1, sequence (P24385 whole entry partner, species assumed): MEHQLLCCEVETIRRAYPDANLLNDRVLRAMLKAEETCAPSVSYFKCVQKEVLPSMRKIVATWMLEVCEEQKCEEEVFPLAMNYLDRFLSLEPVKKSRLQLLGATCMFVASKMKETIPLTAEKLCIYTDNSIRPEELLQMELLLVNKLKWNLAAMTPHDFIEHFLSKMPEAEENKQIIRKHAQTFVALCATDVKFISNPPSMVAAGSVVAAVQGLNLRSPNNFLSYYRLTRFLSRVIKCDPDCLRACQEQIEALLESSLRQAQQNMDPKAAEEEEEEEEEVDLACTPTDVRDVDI

One may read the EC50 as the midpoint of the concentration-response curve. High values mean a need for much substance, low ones an effect from little substance. `CCC(C)CN1CCN(c2ccc(Nc3ncc4cc5n(c4n3)C3(CCCC3)CNC5=O)nc2)CC1` (stereo not drawn) [AAA]: in data set [1] (HS68 cells), it took 275 nM to reach a half-maximal effect (EC50). For the same molecule, the “Fold Selectivity (CDK2/CycE/CDK4)” value in data set [2] (Table 2) was 2591. Moreover, the figures for the IC50 in data set [2] (Table 2), in data set [3] and in data set [4] (Table 2) were 6010 nM, 2.3 nM and 2130 nM, respectively. In data set [4] (Table 2), the “Fold Selectivity (CDK2/CycA/CDK4)” value is listed as 918.

Broadly, the AUC(0-inf) is total exposure, with the tail of the curve extrapolated. High values mean more exposure, low ones less exposure. The term AUC denotes concentration integrated over time. The low end stands for less exposure, the high end for more exposure. The Cmax is the maximum level reached in the sampled fluid or tissue. The Tmax is the time from dosing to the highest level. As to `O=C1NCC2(CCCCC2)n2c1cc1cnc(Nc3ccc(N4CCNCC4)cn3)nc12` [Compound Q], in data set [5] (150 mg/kg oral gavage), the “EdU incorporation into HSPCs at 12 and 24 hours compared to control” value was “some reduction at 12 hours and started to return to baseline at 24 hours”. The “G1-arrest of bone marrow stem cells (HSPC)” value in data set [5] (oral gavage, mice) is “dose dependent, transient, and reversible G1-arrest”. For the same molecule, the “oral bioavailability (in words)” value in data set [6] (mice) is listed as “low”. The molecule further yielded a F in data set [6] (mouse) of 2%. In data set [6] (setting [7]), the half-life is 48 min. For the same molecule, in data set [6] (plasma, mouse), the total exposure AUC(0-inf) came out at 0.95 µM·h, the clearance worked out at 44 mL/min/kg and the Vd came to 5.2 L/kg. Further, in data set [6] (setting [8]), the exposure (AUC) amounted to 0.15 µM·h, the Cmax turned out to be 160 nM and the Tmax turned out to be 30 min.

One may read the bioavailability as the share of a dose that reaches the circulation, judged against a reference dose that is usually intravenous. `O=C1NCC2(CCCCC2)n2c1cc1cnc(Nc3ccc(N4CCC(N5CCOCC5)CC4)cn3)nc12` [Compound U, 2′-((5-(4-morpholinopiperidin-1-yl)pyridin-2-yl)amino)-7′,8′-dihydro-6′H-spiro[cyclohexane-1,9′-pyrazino[1′,2′:1,5]pyrrolo[2,3-d]pyrimidin]-6′-one]: the IC50 in data set [2] (Table 2) amounted to 1460 nM; in data set [2] (Table 3), 1460 nM; in data set [4] (Table 2) it was 857 nM; in data set [4] (Table 3), 857 nM. In data set [6] (mouse), this molecule yielded an F of 67%. For the same molecule, the half-life in data set [6] (setting [7]) is 180 min; in data set [6] (mouse, plasma, po, 30 mg/kg, mouse, read-out: plasma half-life following oral administration), 180 to 300 min. In data set [6] (mouse, plasma, po, 30 mg/kg, read-out: oral bioavailability (F (%))), the bioavailability was in the range of 52 to 80%. Besides, in data set [6] (plasma, mouse), the AUC(0-inf) is 0.76 µM·h. The same molecule displayed a clearance in data set [6] (plasma, mouse) of 52 mL/min/kg. In addition, the Vd in data set [6] (plasma, mouse) was 3.4 L/kg. For the same molecule, the AUC in data set [6] (setting [8]) amounted to 3.3 µM·h. Moreover, the Cmax in data set [6] (setting [8]) came to 4200 nM. Further, the Tmax in data set [6] (setting [8]) came to 30 min.

Consider `CCC(C)CN1CCN(c2ccc(Nc3ncc4cc5n(c4n3)C3(CCCC3)CNC5=O)nc2)CC1` (stereo not drawn) [FFF], for which the EC50 in data set [1] (HS68 cells) worked out at 650 nM. The “Fold Selectivity (CDK2/CycE/CDK4)” value in data set [2] (Table 2) was 966. The figures for the IC50 in data set [2] (Table 2), in data set [3] and in data set [4] (Table 2) were 4540 nM, 4.7 nM and 1370 nM, respectively. In addition, the “Fold Selectivity (CDK2/CycA/CDK4)” value in data set [4] (Table 2) is reported as 291.

In data set [1] (Homo sapiens, Hs68, HS68 cells), `CC1CN(c2ccc(Nc3ncc4cc5n(c4n3)C3(CCCC3)CNC5=O)nc2)CC(C)N1CCC(C)(C)C` (stereo not drawn) [PPP] registered an EC50 of 275 nM. In data set [2] (Table 2), the “Fold Selectivity (CDK2/CycE/CDK4)” value is given as 21263 and the IC50 is 16500 nM. For the same molecule, the IC50 in data set [3] is 0.8 nM. Further, in data set [4] (Table 2), the “Fold Selectivity (CDK2/CycA/CDK4)” value came out at 3402 and the IC50 was determined as 2640 nM.

On to `CCC(C)[C@@H]1CNC(=O)c2cc3cnc(Nc4ccc(N5CCN(C)CC5)cn4)nc3n21` (stereo partly drawn) [VVV], for which, in data set [1] (Homo sapiens, Hs68, HS68 cells), the response was half-maximal at 300 nM (EC50). Moreover, in data set [2] (Table 2), the “Fold Selectivity (CDK2/CycE/CDK4)” value was 589 and the IC50 was 4380 nM. Further, the IC50 in data set [3] came to 7.4 nM.

With `CC1CN(c2ccc(Nc3ncc4cc5n(c4n3)C3(CCCCC3)CNC5=O)nc2)CCN1CC(C)(C)O` (stereo not drawn) [W], in data set [2] (Table 2), the “Fold Selectivity (CDK2/CycE/CDK4)” value stood at 1481 and the IC50 is 3970 nM. Moreover, the IC50 in data set [3] came out at 2.7 nM. Moreover, in data set [4] (Table 2), the “Fold Selectivity (CDK2/CycA/CDK4)” value is on record as 201 and the IC50 is 539 nM.

Take `C[C@H](O)CN1CCN(c2ccc(Nc3ncc4cc5n(c4n3)C3(CCCC3)CNC5=O)nc2)C[C@H]1C` [XX]: in data set [2] (Table 2), the “Fold Selectivity (CDK2/CycE/CDK4)” value stood at 5615 and the IC50 stood at 7300 nM. Also, the IC50 in data set [3] was found to be 1.3 nM. Further, in data set [4] (Table 2), the “Fold Selectivity (CDK2/CycA/CDK4)” value is 4838 and the IC50 came out at 6290 nM.

For the molecule `O=C1NCC2(CCCCC2)n2c1cc1cnc(Nc3ccc(N4CCC(N5CCC(C(F)(F)F)CC5)CC4)cn3)nc12` [X], in data set [2] (Table 2), the “Fold Selectivity (CDK2/CycE/CDK4)” value was 12975 and the IC50 turned out to be 11600 nM. Moreover, the IC50 in data set [3] was found to be 0.9 nM. For the same molecule, in data set [4] (Table 2), the “Fold Selectivity (CDK2/CycA/CDK4)” value is reported as 2058 and the IC50 was determined as 1840 nM.

For the molecule `O=C1NCC2(CCCCC2)n2c1cc1cnc(Nc3ccc(C(=O)N4CCNCC4)cn3)nc12` [Y], in data set [2] (Table 2), the “Fold Selectivity (CDK2/CycE/CDK4)” value is 50 and the IC50 came to 124 nM. Besides, in data set [3], the IC50 turned out to be 2.5 nM. Besides, in data set [4] (Table 2), the “Fold Selectivity (CDK2/CycA/CDK4)” value is listed as 25 and the IC50 was 61 nM.

As for `C[C@H](O)CN1[C@H](C)CN(c2ccc(Nc3ncc4cc5n(c4n3)C3(CCCCC3)CNC5=O)nc2)C[C@@H]1C` [Z], in data set [2] (Table 2), the “Fold Selectivity (CDK2/CycE/CDK4)” value is listed as 1174 and the IC50 amounted to 3710 nM. The IC50 in data set [3] turned out to be 3.2 nM. In data set [4] (Table 2), the “Fold Selectivity (CDK2/CycA/CDK4)” value was determined as 205 and the IC50 was found to be 647 nM.
